Reference: the kinase profiling compilation of Christmann-Franck et al. (2016)

Legend:
Test in all cases: KINOMEscan competition binding
Settings in all cases: compound 10.0 µM
DDR2 (human) = DDR2 (human) (UniProt Q16832)
SGK110 (human) = SGK110 (human) (UniProt P0C264)
LCK (human) = LCK (human) (UniProt P06239)
MST1R (human) = MST1R (human) (UniProt Q04912)
DAPK1 (human) = DAPK1 (human) (UniProt P53355)
MAP4K4 (human) = MAP4K4 (human) (UniProt O95819)
[1] = tested on: MET (human), P08581 [Y1235D]
[2] = tested on: PIK3CA (human), P42336 [H1047L]
Sequence of PIK3CA (human), P42336 [H1047L] (P42336 whole entry H1047L, looked up): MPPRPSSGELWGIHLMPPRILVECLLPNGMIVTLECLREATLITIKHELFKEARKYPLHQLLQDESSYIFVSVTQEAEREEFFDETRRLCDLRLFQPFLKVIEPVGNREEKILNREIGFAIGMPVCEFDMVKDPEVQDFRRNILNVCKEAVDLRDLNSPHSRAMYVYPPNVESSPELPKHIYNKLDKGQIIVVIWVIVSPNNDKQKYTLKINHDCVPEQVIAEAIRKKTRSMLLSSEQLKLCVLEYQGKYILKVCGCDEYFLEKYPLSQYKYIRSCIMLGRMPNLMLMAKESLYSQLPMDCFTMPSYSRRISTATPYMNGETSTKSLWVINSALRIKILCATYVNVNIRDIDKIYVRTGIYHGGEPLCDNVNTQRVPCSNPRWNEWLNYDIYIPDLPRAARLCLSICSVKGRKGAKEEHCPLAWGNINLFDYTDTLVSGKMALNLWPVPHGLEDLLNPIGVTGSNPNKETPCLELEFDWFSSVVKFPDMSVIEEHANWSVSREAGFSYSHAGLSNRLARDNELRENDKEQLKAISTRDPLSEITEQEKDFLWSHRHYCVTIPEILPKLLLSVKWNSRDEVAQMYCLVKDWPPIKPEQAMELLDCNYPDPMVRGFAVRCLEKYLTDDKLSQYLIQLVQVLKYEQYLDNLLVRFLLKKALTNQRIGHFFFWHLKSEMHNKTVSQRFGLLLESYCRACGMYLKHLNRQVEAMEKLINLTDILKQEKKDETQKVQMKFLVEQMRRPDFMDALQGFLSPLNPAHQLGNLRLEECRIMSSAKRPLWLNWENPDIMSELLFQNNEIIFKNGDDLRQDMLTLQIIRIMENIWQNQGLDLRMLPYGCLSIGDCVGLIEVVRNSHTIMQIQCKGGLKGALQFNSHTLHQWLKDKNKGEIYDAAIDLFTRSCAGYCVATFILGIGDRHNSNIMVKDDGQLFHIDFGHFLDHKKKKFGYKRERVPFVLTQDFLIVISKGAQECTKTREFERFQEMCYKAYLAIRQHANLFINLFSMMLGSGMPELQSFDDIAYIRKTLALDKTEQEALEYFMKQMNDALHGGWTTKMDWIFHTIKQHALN

[3] = tested on: FLT3 (human), P36888 [D835Y]
BMP2K (human) = BMP2K (human) (UniProt Q9NSY1)
MARK1 (human) = MARK1 (human) (UniProt Q9P0L2)
TXK (human) = TXK (human) (UniProt P42681)
Sequence of TXK (human) (P42681 whole entry, looked up): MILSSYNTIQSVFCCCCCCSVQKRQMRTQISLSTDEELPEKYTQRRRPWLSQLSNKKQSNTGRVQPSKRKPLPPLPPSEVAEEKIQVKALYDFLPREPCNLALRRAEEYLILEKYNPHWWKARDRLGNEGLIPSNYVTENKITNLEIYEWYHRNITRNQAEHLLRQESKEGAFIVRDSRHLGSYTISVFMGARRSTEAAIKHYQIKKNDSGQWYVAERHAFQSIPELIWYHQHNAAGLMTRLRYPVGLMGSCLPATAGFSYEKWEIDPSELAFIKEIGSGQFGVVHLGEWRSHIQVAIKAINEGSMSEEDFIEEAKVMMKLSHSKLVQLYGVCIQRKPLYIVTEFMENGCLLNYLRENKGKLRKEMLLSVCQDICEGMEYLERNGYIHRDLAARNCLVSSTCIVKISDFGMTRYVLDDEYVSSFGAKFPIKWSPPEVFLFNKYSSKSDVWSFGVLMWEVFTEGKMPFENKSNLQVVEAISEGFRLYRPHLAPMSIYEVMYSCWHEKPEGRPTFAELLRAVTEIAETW

ABL1 (human) = ABL1 (human) (UniProt P00519)
CDK3 (human) = CDK3 (human) (UniProt Q00526)
BRSK2 (human) = BRSK2 (human) (UniProt Q8IWQ3)
PLK1 (human) = PLK1 (human) (UniProt P53350)
PRKCH (human) = PRKCH (human) (UniProt P24723)
TTK (human) = TTK (human) (UniProt P33981)
STK32B (human) = STK32B (human) (UniProt Q9NY57)
MINK1 (human) = MINK1 (human) (UniProt Q8N4C8)
TNIK (human) = TNIK (human) (UniProt Q9UKE5)
EPHA3 (human) = EPHA3 (human) (UniProt P29320)
PKN1 (human) = PKN1 (human) (UniProt Q16512)
BLK (human) = BLK (human) (UniProt P51451)
MAP3K1 (human) = MAP3K1 (human) (UniProt Q13233)
[4] = tested on: ABL1 (human), P00519 [T315I]
MAP3K4 (human) = MAP3K4 (human) (UniProt Q9Y6R4)
NEK5 (human) = NEK5 (human) (UniProt Q6P3R8)
Sequence of NEK5 (human) (Q6P3R8 whole entry, looked up): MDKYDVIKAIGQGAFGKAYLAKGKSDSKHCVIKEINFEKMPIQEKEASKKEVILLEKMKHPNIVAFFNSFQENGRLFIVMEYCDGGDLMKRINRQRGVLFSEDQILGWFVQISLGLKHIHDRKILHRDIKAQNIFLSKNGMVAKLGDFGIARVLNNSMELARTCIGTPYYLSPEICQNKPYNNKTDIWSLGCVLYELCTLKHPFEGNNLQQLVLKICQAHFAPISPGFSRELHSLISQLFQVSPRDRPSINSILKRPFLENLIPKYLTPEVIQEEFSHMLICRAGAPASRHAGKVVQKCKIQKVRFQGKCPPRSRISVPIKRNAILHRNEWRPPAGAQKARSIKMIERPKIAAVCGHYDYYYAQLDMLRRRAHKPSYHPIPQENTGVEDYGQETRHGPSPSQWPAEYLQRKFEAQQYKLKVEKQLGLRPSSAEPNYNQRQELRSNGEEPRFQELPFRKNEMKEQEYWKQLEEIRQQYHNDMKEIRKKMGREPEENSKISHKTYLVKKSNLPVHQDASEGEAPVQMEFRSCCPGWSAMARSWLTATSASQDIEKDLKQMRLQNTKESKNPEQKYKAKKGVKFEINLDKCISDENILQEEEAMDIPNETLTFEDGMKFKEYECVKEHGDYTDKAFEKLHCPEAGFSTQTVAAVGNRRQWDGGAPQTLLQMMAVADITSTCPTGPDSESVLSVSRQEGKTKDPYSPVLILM

PLK3 (human) = PLK3 (human) (UniProt Q9H4B4)
CDK18 (human) = CDK18 (human) (UniProt Q07002)
BMPR2 (human) = BMPR2 (human) (UniProt Q13873)
ACVR2B (human) = ACVR2B (human) (UniProt Q13705)
[5] = tested on: RET (human), P07949 [V804L]
STK24 (human) = STK24 (human) (UniProt Q9Y6E0)
Sequence of STK24 (human) (Q9Y6E0 whole entry, looked up): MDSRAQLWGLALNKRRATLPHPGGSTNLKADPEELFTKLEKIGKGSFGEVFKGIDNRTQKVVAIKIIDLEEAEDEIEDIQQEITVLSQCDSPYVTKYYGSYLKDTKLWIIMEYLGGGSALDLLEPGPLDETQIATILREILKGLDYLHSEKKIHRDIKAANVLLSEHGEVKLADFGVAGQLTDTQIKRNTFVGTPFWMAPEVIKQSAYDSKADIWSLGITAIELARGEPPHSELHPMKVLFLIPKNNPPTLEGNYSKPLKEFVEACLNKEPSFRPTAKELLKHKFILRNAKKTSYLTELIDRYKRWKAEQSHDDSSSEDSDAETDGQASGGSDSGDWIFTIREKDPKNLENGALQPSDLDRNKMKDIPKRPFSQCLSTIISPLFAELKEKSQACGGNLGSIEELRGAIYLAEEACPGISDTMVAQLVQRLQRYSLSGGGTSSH

CSF1R (human) = CSF1R (human) (UniProt P07333)
MKNK2 (human) = MKNK2 (human) (UniProt Q9HBH9)
RPS6KA4 KD1 (human) = RPS6KA4 KD1 (human) (UniProt O75676)
YSK4 (human) = YSK4 (human) (UniProt Q56UN5)
LATS2 (human) = LATS2 (human) (UniProt Q9NRM7)
Sequence of LATS2 (human) (Q9NRM7 whole entry, looked up): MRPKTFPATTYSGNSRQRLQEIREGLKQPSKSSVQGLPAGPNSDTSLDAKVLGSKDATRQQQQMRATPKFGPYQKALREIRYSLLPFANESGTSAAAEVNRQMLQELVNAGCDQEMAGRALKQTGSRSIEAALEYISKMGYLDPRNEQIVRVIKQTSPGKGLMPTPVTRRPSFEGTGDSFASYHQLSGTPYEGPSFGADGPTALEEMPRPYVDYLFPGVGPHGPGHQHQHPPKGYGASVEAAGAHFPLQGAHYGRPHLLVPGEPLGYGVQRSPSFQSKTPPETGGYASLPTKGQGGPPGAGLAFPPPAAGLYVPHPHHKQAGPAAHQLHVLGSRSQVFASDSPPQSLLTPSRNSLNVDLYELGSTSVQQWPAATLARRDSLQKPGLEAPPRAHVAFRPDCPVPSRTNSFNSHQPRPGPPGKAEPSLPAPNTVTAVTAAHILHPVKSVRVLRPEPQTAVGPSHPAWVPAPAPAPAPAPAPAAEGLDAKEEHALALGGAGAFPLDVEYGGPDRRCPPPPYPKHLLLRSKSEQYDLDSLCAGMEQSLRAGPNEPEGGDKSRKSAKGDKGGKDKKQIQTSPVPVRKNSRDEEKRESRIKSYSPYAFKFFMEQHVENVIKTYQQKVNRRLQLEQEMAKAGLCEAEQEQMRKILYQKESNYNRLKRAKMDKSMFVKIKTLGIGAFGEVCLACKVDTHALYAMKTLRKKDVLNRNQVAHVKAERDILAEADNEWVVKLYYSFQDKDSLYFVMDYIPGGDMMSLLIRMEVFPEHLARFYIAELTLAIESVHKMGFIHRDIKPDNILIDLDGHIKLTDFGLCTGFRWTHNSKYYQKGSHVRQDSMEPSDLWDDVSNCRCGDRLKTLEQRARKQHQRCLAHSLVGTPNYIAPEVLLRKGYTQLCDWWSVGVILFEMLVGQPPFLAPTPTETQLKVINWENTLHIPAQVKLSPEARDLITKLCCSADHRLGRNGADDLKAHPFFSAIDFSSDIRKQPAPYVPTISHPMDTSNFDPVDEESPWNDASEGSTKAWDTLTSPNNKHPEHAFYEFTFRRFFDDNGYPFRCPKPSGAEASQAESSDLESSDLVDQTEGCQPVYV

PDPK1 (human) = PDPK1 (human) (UniProt O15530)
Sequence of PDPK1 (human) (O15530 whole entry, looked up): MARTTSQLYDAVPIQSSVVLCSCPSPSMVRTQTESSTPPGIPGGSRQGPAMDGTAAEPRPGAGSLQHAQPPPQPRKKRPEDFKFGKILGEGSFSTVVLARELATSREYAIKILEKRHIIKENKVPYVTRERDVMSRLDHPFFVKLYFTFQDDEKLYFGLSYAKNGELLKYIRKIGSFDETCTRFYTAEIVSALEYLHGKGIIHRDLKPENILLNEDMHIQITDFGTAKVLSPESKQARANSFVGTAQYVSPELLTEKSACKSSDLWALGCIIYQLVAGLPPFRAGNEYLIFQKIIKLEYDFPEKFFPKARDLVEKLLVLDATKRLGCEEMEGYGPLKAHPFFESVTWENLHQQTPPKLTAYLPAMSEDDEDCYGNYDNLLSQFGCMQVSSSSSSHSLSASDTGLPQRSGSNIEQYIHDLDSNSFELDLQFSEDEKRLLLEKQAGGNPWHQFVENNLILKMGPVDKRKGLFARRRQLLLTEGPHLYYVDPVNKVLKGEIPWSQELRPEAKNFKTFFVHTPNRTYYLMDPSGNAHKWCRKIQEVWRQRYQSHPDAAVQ

RIPK4 (human) = RIPK4 (human) (UniProt P57078)
TGFBR1 (human) = TGFBR1 (human) (UniProt P36897)
Sequence of TGFBR1 (human) (P36897 whole entry, looked up): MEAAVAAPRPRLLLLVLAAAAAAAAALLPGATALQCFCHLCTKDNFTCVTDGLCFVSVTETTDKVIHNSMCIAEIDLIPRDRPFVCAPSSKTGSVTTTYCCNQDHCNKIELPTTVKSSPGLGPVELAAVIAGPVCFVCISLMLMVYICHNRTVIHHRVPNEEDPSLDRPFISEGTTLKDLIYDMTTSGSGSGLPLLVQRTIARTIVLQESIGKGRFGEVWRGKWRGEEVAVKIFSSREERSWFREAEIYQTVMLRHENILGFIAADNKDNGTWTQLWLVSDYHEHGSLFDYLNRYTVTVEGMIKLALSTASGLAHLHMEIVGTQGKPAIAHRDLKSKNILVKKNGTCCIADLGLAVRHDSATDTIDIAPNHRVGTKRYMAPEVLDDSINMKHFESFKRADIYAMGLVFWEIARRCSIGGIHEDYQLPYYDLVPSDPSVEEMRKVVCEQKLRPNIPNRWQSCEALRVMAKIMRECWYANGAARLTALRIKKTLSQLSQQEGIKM

With O=C1Nc2cc(Br)ccc2/C1=C1/Nc2ccccc2/C1=N\O the kinase still bound, per cent of control (DDR2 (human)) was 23%, the kinase still bound, per cent of control (SGK110 (human)) was 100% and the kinase still bound, per cent of control (LCK (human)) was 4.8%. The kinase still bound, per cent of control (MST1R (human)) was 100%, the kinase still bound, per cent of control (DAPK1 (human)) was 3.6% and the kinase still bound, per cent of control (MAP4K4 (human)) was 8%. For the same compound, the kinase still bound, per cent of control [1] was 100%, the kinase still bound, per cent of control [2] was 100% and the kinase still bound, per cent of control [3] was 0%. For the same compound, the kinase still bound, per cent of control (BMP2K (human)) was 0.65%, the kinase still bound, per cent of control (MARK1 (human)) was 38% and the kinase still bound, per cent of control (TXK (human)) was 15%. It also gave a kinase still bound, per cent of control (ABL1 (human)) of 2.3%, a kinase still bound, per cent of control (CDK3 (human)) of 75% and a kinase still bound, per cent of control (BRSK2 (human)) of 1.1%. The kinase still bound, per cent of control (PLK1 (human)) was 100%, the kinase still bound, per cent of control (PRKCH (human)) was 100% and the kinase still bound, per cent of control (TTK (human)) was 3.8%. For the same compound, the kinase still bound, per cent of control (STK32B (human)) was 100%, the kinase still bound, per cent of control (MINK1 (human)) was 6.2% and the kinase still bound, per cent of control (TNIK (human)) was 4.6%. For the same compound, the kinase still bound, per cent of control (EPHA3 (human)) was 1.7%, the kinase still bound, per cent of control (PKN1 (human)) was 79% and the kinase still bound, per cent of control (BLK (human)) was 0.05%. For the same compound, the kinase still bound, per cent of control (MAP3K1 (human)) was 100%, the kinase still bound, per cent of control [4] was 0.65% and the kinase still bound, per cent of control (MAP3K4 (human)) was 85%. The kinase still bound, per cent of control (NEK5 (human)) was 80%, the kinase still bound, per cent of control (PLK3 (human)) was 100% and the kinase still bound, per cent of control (CDK18 (human)) was 12%. It also gave a kinase still bound, per cent of control (BMPR2 (human)) of 46%, a kinase still bound, per cent of control (ACVR2B (human)) of 20% and a kinase still bound, per cent of control [5] of 0%. The kinase still bound, per cent of control (STK24 (human)) was 12%, the kinase still bound, per cent of control (CSF1R (human)) was 1.2% and the kinase still bound, per cent of control (MKNK2 (human)) was 28%. The kinase still bound, per cent of control (RPS6KA4 KD1 (human)) was 3.2%, the kinase still bound, per cent of control (YSK4 (human)) was 3.8% and the kinase still bound, per cent of control (LATS2 (human)) was 60%. It also gave a kinase still bound, per cent of control (PDPK1 (human)) of 20%, a kinase still bound, per cent of control (RIPK4 (human)) of 40% and a kinase still bound, per cent of control (TGFBR1 (human)) of 83%.

With Cn1cc(C2=C(c3ccc(Cl)cc3Cl)C(=O)NC2=O)c2ccccc21 the kinase still bound, per cent of control (DDR2 (human)) was 84%, the kinase still bound, per cent of control (SGK110 (human)) was 100% and the kinase still bound, per cent of control (LCK (human)) was 96%. It also gave a kinase still bound, per cent of control (MST1R (human)) of 100%, a kinase still bound, per cent of control (DAPK1 (human)) of 79% and a kinase still bound, per cent of control (MAP4K4 (human)) of 76%. It also gave a kinase still bound, per cent of control [1] of 85%, a kinase still bound, per cent of control [2] of 100% and a kinase still bound, per cent of control [3] of 16%. For the same compound, the kinase still bound, per cent of control (BMP2K (human)) was 58%, the kinase still bound, per cent of control (MARK1 (human)) was 96% and the kinase still bound, per cent of control (TXK (human)) was 100%. The kinase still bound, per cent of control (ABL1 (human)) was 100%, the kinase still bound, per cent of control (CDK3 (human)) was 14% and the kinase still bound, per cent of control (BRSK2 (human)) was 85%. For the same compound, the kinase still bound, per cent of control (PLK1 (human)) was 85%, the kinase still bound, per cent of control (PRKCH (human)) was 79% and the kinase still bound, per cent of control (TTK (human)) was 83%. It also gave a kinase still bound, per cent of control (STK32B (human)) of 100%, a kinase still bound, per cent of control (MINK1 (human)) of 60% and a kinase still bound, per cent of control (TNIK (human)) of 68%. The kinase still bound, per cent of control (EPHA3 (human)) was 76%, the kinase still bound, per cent of control (PKN1 (human)) was 73% and the kinase still bound, per cent of control (BLK (human)) was 100%. The kinase still bound, per cent of control (MAP3K1 (human)) was 100%, the kinase still bound, per cent of control [4] was 80% and the kinase still bound, per cent of control (MAP3K4 (human)) was 98%. The kinase still bound, per cent of control (NEK5 (human)) was 99%, the kinase still bound, per cent of control (PLK3 (human)) was 97% and the kinase still bound, per cent of control (CDK18 (human)) was 7.4%. For the same compound, the kinase still bound, per cent of control (BMPR2 (human)) was 100%, the kinase still bound, per cent of control (ACVR2B (human)) was 100% and the kinase still bound, per cent of control [5] was 100%. For the same compound, the kinase still bound, per cent of control (STK24 (human)) was 69%, the kinase still bound, per cent of control (CSF1R (human)) was 87% and the kinase still bound, per cent of control (MKNK2 (human)) was 89%. For the same compound, the kinase still bound, per cent of control (RPS6KA4 KD1 (human)) was 100%, the kinase still bound, per cent of control (YSK4 (human)) was 12% and the kinase still bound, per cent of control (LATS2 (human)) was 100%. The kinase still bound, per cent of control (PDPK1 (human)) was 100%, the kinase still bound, per cent of control (RIPK4 (human)) was 100% and the kinase still bound, per cent of control (TGFBR1 (human)) was 96%.
